Reference: US12636366B2, “Ruthenium (II) complexes and conjugates thereof for use as photosensitizer agent in photodynamic therapy” (Paris Sciences et Lettres, priority 2019, dated 2026)
Like-named read-outs stand apart in the source and are kept apart here.

Key:
[1] = Emission of the complexes in CH3CN upon excitation at 355 nm; assay type: physicochemical; details: room temperature
Procedure: The absorption of the samples in cuvettes has been measured with a Lambda 800 UV/VIS Spectrometer (PerkinElmer Instruments) and in 96 well plates with a SpectraMax M2 Spectrometer (Molecular Devices). The emission was measured by irradiation of the sample in fluorescence quartz cuvettes (width 1 cm) using a NT342B Nd-YAG pumped optical parametric oscillator (Ekspla) at 355 nm. Luminescence was focused and collected at right angle to the excitation pathway and directed to a Princeton Instruments Acton SP-2300i monochromator equipped with 1200 g/mm grating blazed at 500 nm. As a detector a XPI-Max 4 CCD camera (Princeton Instruments) has been used.
Upon excitation at 355 nm, the emission of the complexes in CH3CN was determined. The maximum of the emission signal was measured between 600-710 nm (Table 1). […] This leads for all investigated complexes to a large Stokes shift implying minimal inference between excitation and luminescence.

[2] = Singlet oxygen measurement, direct evaluation (1O2 luminescence at 1270 nm); assay type: physicochemical; details: direct method, excitation at 450 nm; for Singlet oxygen quantum yield Φ(1O2), CH3CN Direct / Singlet oxygen quantum yield Φ(1O2), D2O Direct: average of three, +-10%
Procedure: The samples were prepared in an air saturated CH3CN or D2O solution with an absorbance of 0.2 at 450 nm. This solution was irradiated in fluorescence quartz cuvettes (width 1 cm) using a mounted M450LP1 LED (Thorlabs) whose irradiation, centered at 450 nm, has been focused with aspheric condenser lenses. The intensity of the irradiation has been varied using a T-Cube LED Driver (Thorlabs) and measured with an optical power and energy meter. The emission signal was focused and collected at right angle to the excitation pathway and directed to a Princeton Instruments Acton SP-2300i monochromator equipped with 600 g/mm grating blazed at 1200 nm. A longpass glass filter was placed in front of the monochromator entrance slit to cut off light at wavelengths shorter than 850 nm. The slits for detection were fully open. As a detector an EO-817L IR-sensitive liquid nitrogen cooled germanium diode detector (North Coast Scientific Corp.) has been used. The singlet oxygen luminesce at 1270 nm was measured by recording spectra from 1100 to 1400 nm. For the data analysis, the singlet oxygen luminescence peaks at different irradiation intensities were integrated. The resulting areas were plotted against the percentage of the irradiation intensity and the slope of the linear regression calculated. The absorbance of the sample was corrected with an absorbance correction factor. As reference for the measurement in an CH3CN solution phenalenone (Φphenaleone=0.95)^33 and for the measurement in a D2O solution [Ru(bipy)3]Cl2 (ΦRu(bipy)3C12=0.22)^31 was used and the singlet oxygen quantum yields were calculated using the following formula: […]
Additionally, the DFT calculations were able to characterize the lowest energy absorption band as a MLCT transition with a triplet state. With this in hand, a quantitative evaluation of singlet oxygen (^1O2) was performed to assess the potential of the PSs in PDT, by two methods: 1) direct by measurement of the luminescence of ^1O2, 2) indirect by measurement of the variation in absorbance of a reporter molecule, as described above. In the first method, the efficiency of the production of ^1O2 was assessed by measuring its phosphorescence at 1270 nm. Worthy of note, the possibility of detection in this experiment is affected by its environment as well as the used setup. With the setup used in this study, we could only detect Φ(^1O2) larger than 0.20 based on a low peak-to-noise ratio. In the second method (indirect method), ^1O2 is reacting with imidazole (in CH3CN) and histidine (in PBS buffer) to a trans-annular peroxide adduct. This can further quench the absorbance of the reporter molecule p-nitrosodimethyl aniline (RNO), which has been monitored by UV/VIS spectroscopy. In both methods, the ^1O2 production has been compared with a reference molecule, namely a solution of phenalenone in CH3CN (Φ(^1O2)phenaleone=0.95)^33 and a solution of [Ru(bipy)3]Cl2 in water Φ(^1O2)Ru(bipy)3Cl2=0.22)^31. […] In comparison, the values changed drastically in an aqueous solution. […] They have untypically low Φ(^1O2) values in CH3CN (0.22-0.35) for Ru(II) polypyridyl complexes. Subsequently, the ^1O2 production was also quite low in an aqueous environment.

[3] = test system: human cervical carcinoma cells (HeLa); test: Dark and light cytotoxicity, resazurin cell viability assay, HeLa; assay type: cell-based; details: for PI (IC50 in the dark/IC50 upon light irradiation): 480 nm
Procedure: (§1) HeLa and CT-26 cell lines were cultured in DMEM media (Gibco, Life Technologies, USA) supplemented with 10% of fetal calf serum (Gibco). U87 and U373 cell lines were cultured in MEM media with addition of 1% of MEM NEAA (non-essential aminoacids) (Gibco) and 10% of fetal calf serum. RPE-1 cells were cultured in DMEM/F-12 (Gibco) supplemented with 10% of fetal calf serum. RPE-1 stable cells lines were cultured as RPE-1 cells with addition of geneticin (0.5 mg/ml) (Gibco). All cell lines were complemented with 100 U/ml penicillin-streptomycin mixture (Gibco), and maintained in humidified atmosphere at 37° C. and 5% of CO2.
(§2) Dark and light cytotoxicity of the Ru(II) complexes was assessed by fluorometric cell viability assay using resazurin (ACROS Organics). For dark and light cytotoxicity, cells were seeded in triplicates in 96 well plates at a density of 4000 cells per well in 100 μl, 24 h prior to treatment. The medium was then replaced with increasing concentration of the tested complexes and cells were incubated for 4 h. Medium was then replaced for fresh complete medium. Cells used for light cytotoxicity experiment were exposed to: 480 nm light for 10 min, 510 nm for 40 min, 540 for 60 min or 595 nm for 120 min in a 96-well plate using a LUMOS-BIO photoreactor (Atlas Photonics). Each well was individually illuminated with a LED at constant current. After irradiation cells were kept for another 44 h in the incubator and the medium was replaced by fresh complete medium containing resazurin (0.2 mg ml^−1 final concentration). After 4 h incubation at 37° C., the fluorescence signal of the resorufin product was read by SpectraMax M5 microplate reader (ex: 540 nm em: 590 nm). IC50 values were calculated using GraphPad Prism software.
(§3) The potential of the complexes to act as PDT PSs was determined on mouse colon carcinoma cells (CT-26), human glioblastoma cells (U87 and U373), human cervical carcinoma cells (HeLa) as well as non-cancerous retina pigmented epithelial cell line (RPE-1) according to the method described above. […] Ideally, a PDT PS should be non-toxic in the dark and highly toxic upon light activation. […] The toxicity of the compounds upon light irradiation (480 nm, 10 min, 3.21 J cm^−2) was then investigated.

[4] = test system: non-cancerous retina pigmented epithelial cell line (RPE-1); test: Dark and light cytotoxicity, resazurin cell viability assay, RPE-1; assay type: cell-based; details: for PI (IC50 in the dark/IC50 upon light irradiation): RPE-1, 480 nm
Procedure: as §1, §2, §3

[5] = light 480 nm, 10 min, 3.21 J cm^−2, read-out: IC50 Light
[6] = RPE-1, dark, read-out: IC50 Dark
[7] = RPE-1, light 480 nm, 10 min, 3.21 J cm^−2, read-out: IC50 Light

Compound	Emission λem [1] [nm]	Singlet oxygen quantum yield Φ(1O2), CH3CN Direct [2]	Singlet oxygen quantum yield Φ(1O2), D2O Direct [2]	IC50 ([3]; dark, read-out: IC50 Dark) [µM]	IC50 [3, 5] [µM]	IC50 [4, 6] [µM]	IC50 [4, 7] [µM]	Singlet oxygen quantum yield Φ(1O2), D2O Direct (not determinable) [2]	PI (IC50 in the dark/IC50 upon light irradiation) ([3]; 10 min)	PI (IC50 in the dark/IC50 upon light irradiation) ([4]; 10 min)
F[P-](F)(F)(F)(F)F.F[P-](F)(F)(F)(F)F.[Ru+2].c1ccc(-c2ccccn2)nc1.c1cnc2c(c1)ccc1cccnc12.c1cnc2c(c1)ccc1cccnc12 [Compound 1, (Bipyridine)bis(1,10-phenanthroline)ruthenium(II)hexafluorophosphate]	600	0.57	0.27	> 100	> 100	> 100	> 100	–	–	–
Cc1ccnc(-c2cc(C)ccn2)c1.F[P-](F)(F)(F)(F)F.F[P-](F)(F)(F)(F)F.[Ru].c1cnc2c(c1)ccc1cccnc12.c1cnc2c(c1)ccc1cccnc12 [Compound 2, (4,4′-Dimethyl-2,2′-bipyridine)bis(1,10-phenanthroline)ruthenium(II)hexafluorophosphate]	606	0.69	0.31	> 100	> 100	> 100	> 100	–	–	–
(2,2′-bipyridine-4,4′-carboxamide)bis(1,10-phenanthroline)ruthenium(II) hexafluorophosphate [Compound 4]	654	0.62	0.25	> 100	> 100	> 100	> 100	–	–	–
(4,4′-Dibromo-2,2′-bipyridine)bis(1,10-phenanthroline)ruthenium(II) hexafluorophosphate [Compound 3]	645	0.55	not detectable	> 100	> 100	> 100	> 100	n.d. (n.d. = not determinable, Φ(^1O2) < 0.20)	–	–
(4,4′-Dimethyl-2,2′-bipyridine)bis(4,7-diphenyl-1,10-phenanthroline)ruthenium(II) hexafluorophosphate [Compound 6]	623	0.61	not detectable	13.6 ± 1.3	0.61 ± 0.06	28.8 ± 0.94	0.825 ± 0.03	n.d. (n.d. = not determinable, Φ(^1O2) < 0.20)	22.2	34.9
((E,E′)-4,4′-Bis(N,N′-dimethylaminovinyl)-2,2′-bipyridine)bis(1,10-phenanthroline)ruthenium(II) hexafluorophosphate [Compound 5]	703	0.24	–	> 100	> 100	> 100	> 100	n.d. (n.d. = not determinable, Φ(^1O2) < 0.20)	–	–
((E,E′)-4,4′-Bis(N,N′-dimethylaminovinyl)-2,2′-bipyridine)bis(4,7-diphenyl-1,10-phenanthroline)ruthenium(II) hexafluorophosphate [Compound 7]	694	0.22	–	> 100	15.2 ± 1.29	> 100	8.95 ± 0.5	n.d. (n.d. = not determinable, Φ(^1O2) < 0.20)	>6.5	>11.2
